# Measurements published in PMC10638548 (Acta Pharmaceutica Sinica. B, 2023).
# Assays:
# [1] = hPXR/CYP3A mice pretreated with RCP (60 mg/kg, po, bid, 4 days), then oral RTV 20 mg/kg + NMV 60 mg/kg
# CYP3A5 = CYP3A5 (Homo sapiens, UniProt P20815); conditions: 20 μmol/L NMV, 10 pmol CYP, 1 mmol/L NADPH, 37 °C, 1 h
# CYP2E1 = CYP2E1 (Homo sapiens, UniProt P05181); conditions: 20 μmol/L NMV, 10 pmol CYP, 1 mmol/L NADPH, 37 °C, 1 h
# CYP2C9 = CYP2C9 (Homo sapiens, UniProt P11712); conditions: 20 μmol/L NMV, 10 pmol CYP, 1 mmol/L NADPH, 37 °C, 1 h
# CYP2C19 = CYP2C19 (Homo sapiens, UniProt P33261); conditions: 20 μmol/L NMV, 10 pmol CYP, 1 mmol/L NADPH, 37 °C, 1 h
# CYP2A6 = target: T1, CYP2A6 (Homo sapiens, UniProt P11509); conditions: 20 μmol/L NMV, 10 pmol CYP, 1 mmol/L NADPH, 37 °C, 1 h
# T1 sequence (P11509 1-494): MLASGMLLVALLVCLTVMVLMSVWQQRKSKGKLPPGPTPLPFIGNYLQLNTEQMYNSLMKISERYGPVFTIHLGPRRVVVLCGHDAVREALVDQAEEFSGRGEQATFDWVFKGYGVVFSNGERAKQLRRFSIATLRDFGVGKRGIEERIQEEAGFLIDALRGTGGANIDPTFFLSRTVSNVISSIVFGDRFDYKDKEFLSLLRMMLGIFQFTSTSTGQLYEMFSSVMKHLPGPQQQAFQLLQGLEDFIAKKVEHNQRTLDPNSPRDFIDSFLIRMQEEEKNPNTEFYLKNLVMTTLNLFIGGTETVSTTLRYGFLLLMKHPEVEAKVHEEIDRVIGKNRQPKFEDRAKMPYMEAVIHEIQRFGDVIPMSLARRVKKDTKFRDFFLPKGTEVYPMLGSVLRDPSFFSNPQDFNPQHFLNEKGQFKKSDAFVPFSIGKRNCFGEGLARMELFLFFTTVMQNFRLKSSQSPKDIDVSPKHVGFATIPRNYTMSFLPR
# CYP2D6 = CYP2D6 (Homo sapiens, UniProt P10635); conditions: 20 μmol/L NMV, 10 pmol CYP, 1 mmol/L NADPH, 37 °C, 1 h
# CYP3A4 = CYP3A4 (Homo sapiens, UniProt P08684); conditions: 20 μmol/L NMV, 10 pmol CYP, 1 mmol/L NADPH, 37 °C, 1 h
# [2] = cited from earlier work
# [3] = 20 μmol/L NMV, 0.1 mg HLM, 1 mmol/L NADPH, 37 °C, 1 h
# CYP1A2 = target: T2, CYP1A2 (Homo sapiens, UniProt P05177); conditions: 20 μmol/L NMV, 10 pmol CYP, 1 mmol/L NADPH, 37 °C, 1 h
# T2 sequence (P05177 1-516): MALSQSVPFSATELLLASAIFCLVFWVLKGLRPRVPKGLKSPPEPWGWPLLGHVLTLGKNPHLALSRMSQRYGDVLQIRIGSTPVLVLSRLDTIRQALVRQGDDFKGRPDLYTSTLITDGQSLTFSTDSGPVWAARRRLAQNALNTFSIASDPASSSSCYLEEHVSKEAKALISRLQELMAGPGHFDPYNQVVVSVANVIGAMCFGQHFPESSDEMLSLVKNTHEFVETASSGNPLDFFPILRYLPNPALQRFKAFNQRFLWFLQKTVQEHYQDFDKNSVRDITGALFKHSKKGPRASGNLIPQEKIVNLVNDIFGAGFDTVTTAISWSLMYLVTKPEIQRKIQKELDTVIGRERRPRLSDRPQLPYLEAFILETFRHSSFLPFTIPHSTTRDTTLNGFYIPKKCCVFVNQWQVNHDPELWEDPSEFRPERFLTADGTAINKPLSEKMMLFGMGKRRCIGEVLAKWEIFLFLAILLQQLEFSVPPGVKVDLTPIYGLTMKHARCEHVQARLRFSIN
# CYP2B6 = target: T3, CYP2B6 (Homo sapiens, UniProt P20813); conditions: 20 μmol/L NMV, 10 pmol CYP, 1 mmol/L NADPH, 37 °C, 1 h
# T3 sequence (P20813 1-491): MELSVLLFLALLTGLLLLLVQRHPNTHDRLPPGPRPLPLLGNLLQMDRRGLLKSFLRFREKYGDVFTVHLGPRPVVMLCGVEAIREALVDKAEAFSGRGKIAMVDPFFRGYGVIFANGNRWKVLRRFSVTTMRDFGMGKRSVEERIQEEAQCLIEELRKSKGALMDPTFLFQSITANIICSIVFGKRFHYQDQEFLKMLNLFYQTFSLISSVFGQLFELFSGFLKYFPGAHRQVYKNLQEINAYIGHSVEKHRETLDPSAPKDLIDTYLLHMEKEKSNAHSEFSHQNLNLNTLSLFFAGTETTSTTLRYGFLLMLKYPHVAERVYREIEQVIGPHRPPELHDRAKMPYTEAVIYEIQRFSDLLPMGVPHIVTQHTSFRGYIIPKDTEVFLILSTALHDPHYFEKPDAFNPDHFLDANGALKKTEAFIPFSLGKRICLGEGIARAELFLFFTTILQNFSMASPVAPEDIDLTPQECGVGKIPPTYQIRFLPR
# CYP3A protein = conditions: RCP 60 mg/kg po bid 4 days
# CYP3A4 mRNA = conditions: hPXR/CYP3A mice; RIF 50 mg/kg in diet 7 days; RCP 60 mg/kg po bid 4 days
# [4] = clinical studies, co-administration of carbamazepine (CYP3A inducer) ref 16
# Sequence of CYP2C19 (P33261 whole entry): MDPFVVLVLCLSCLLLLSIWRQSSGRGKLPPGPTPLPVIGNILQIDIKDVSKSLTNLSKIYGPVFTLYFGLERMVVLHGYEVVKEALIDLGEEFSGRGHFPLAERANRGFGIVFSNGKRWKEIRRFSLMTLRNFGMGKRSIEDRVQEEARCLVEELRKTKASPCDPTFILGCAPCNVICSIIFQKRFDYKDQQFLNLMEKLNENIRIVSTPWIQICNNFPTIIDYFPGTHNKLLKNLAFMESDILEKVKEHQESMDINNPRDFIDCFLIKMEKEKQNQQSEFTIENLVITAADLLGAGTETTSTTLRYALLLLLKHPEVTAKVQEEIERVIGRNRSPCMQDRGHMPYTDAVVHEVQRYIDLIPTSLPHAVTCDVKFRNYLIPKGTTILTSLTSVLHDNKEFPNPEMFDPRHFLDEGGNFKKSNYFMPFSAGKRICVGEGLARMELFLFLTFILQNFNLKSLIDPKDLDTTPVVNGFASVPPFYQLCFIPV
# Sequence of CYP3A4 (P08684 whole entry): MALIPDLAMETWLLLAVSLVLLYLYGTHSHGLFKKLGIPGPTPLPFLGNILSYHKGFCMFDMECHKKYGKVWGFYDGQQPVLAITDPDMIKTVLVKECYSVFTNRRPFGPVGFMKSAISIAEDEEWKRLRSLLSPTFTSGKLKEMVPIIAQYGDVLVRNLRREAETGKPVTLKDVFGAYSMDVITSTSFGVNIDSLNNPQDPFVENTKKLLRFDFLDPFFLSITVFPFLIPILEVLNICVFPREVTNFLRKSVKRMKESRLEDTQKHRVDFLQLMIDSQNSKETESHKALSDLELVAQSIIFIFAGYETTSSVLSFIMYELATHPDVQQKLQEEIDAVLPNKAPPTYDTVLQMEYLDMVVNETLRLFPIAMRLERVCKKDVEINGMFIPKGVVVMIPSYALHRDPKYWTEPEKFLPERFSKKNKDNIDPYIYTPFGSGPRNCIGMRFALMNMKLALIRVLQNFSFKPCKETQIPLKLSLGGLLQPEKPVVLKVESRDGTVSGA
# Sequence of CYP2E1 (P05181 whole entry): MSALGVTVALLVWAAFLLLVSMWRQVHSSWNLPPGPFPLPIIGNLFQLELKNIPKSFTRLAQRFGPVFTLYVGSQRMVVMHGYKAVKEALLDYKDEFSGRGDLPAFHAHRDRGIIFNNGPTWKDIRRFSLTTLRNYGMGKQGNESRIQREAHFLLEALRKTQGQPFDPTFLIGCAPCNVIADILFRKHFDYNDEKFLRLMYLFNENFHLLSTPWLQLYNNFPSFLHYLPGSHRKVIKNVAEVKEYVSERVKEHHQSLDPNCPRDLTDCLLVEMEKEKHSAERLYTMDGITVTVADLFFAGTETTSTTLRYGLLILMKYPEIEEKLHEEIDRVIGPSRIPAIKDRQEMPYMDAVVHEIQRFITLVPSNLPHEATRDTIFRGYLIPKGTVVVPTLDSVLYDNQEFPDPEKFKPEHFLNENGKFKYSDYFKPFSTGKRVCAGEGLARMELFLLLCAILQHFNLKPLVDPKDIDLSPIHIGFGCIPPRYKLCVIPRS
# Sequence of CYP3A5 (P20815 whole entry): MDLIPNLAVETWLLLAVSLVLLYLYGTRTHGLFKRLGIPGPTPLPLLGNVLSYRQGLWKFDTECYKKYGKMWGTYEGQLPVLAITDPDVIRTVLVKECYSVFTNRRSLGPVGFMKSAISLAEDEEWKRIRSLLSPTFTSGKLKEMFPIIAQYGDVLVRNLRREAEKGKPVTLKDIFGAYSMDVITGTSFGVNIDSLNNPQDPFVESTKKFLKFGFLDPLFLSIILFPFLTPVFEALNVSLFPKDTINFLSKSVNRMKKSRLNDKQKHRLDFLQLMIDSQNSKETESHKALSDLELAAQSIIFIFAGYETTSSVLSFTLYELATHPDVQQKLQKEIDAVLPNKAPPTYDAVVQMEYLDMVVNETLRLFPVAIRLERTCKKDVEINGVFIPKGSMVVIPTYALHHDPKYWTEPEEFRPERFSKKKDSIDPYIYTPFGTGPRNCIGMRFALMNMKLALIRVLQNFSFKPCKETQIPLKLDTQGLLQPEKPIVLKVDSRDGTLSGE
# Sequence of CYP2D6 (P10635 whole entry): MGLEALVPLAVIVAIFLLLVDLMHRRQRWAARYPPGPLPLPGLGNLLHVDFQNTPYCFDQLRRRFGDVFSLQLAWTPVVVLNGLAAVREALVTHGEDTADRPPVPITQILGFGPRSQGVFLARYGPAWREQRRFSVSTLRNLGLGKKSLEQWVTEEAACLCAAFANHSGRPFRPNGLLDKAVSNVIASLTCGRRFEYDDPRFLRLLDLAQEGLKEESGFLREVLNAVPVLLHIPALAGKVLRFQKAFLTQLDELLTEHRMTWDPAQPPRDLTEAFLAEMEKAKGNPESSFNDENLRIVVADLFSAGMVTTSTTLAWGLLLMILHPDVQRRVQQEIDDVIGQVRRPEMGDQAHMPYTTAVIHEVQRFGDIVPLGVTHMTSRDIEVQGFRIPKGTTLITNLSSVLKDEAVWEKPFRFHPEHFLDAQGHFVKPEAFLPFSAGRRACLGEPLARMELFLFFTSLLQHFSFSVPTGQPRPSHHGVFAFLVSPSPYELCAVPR
# Sequence of CYP2C9 (P11712 whole entry): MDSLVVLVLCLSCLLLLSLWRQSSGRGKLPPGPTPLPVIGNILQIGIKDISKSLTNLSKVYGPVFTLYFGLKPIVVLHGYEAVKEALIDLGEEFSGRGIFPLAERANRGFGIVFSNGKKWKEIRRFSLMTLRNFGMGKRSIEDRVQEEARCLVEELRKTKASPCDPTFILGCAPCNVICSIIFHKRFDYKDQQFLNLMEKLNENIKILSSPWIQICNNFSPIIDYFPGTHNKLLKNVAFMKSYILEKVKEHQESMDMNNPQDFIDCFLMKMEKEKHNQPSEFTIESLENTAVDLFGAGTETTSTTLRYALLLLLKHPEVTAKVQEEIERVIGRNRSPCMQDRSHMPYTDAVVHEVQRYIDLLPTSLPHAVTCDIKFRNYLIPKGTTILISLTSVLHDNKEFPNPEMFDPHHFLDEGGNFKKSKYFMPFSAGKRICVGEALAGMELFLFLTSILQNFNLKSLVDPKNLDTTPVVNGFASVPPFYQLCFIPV
SMILES,change of AUC in serum vs control group (in words) [1],change of Cmax in serum vs control group (in words) [1],contribution of CYP3A5 to NMV metabolism (formation of M1–M7) (CYP3A5),contribution of CYP2E1 to NMV metabolism (CYP2E1),contribution of CYP2C9 to NMV metabolism (CYP2C9),contribution of CYP2C19 to NMV metabolism (CYP2C19),contribution of CYP2A6 to NMV metabolism (CYP2A6),contribution of CYP2D6 to NMV metabolism (CYP2D6),contribution of CYP3A4 to NMV metabolism (formation of M1–M7) (CYP3A4),"decrease in AUC of NMV [2, 4] [%]","decrease in Cmax of NMV [2, 4] [%]","reduction for NMV exposure ([2]; healthy subjects, CYP3A4 inducer carbamazepine, Paxlovid fact sheet ref 16) [%]","change of NMV (systemic) exposure (in words) ([2]; healthy subjects, CYP3A4 inhibitor itraconazole, Paxlovid fact sheet ref 16)",number of NMV metabolites identified in the incubation with HLM [3],contribution of CYP1A2 to NMV metabolism (CYP1A2),contribution of CYP2B6 to NMV metabolism (CYP2B6),increase of protein level of CYP3A in the liver vs control (CYP3A protein; Pxr-null/CYP3A mice),"protein level of CYP3A in the liver vs control (CYP3A protein; hPXR/CYP3A mice, RIF 50 mg/kg in diet 7 days)",mRNA expression of CYP3A4 in the liver vs control (CYP3A4 mRNA)
"CC(C)(C)[C@H](NC(=O)C(F)(F)F)C(=O)N1C[C@H]2[C@@H]([C@H]1C(=O)N[C@H](C#N)C[C@@H]1CCNC1=O)C2(C)C [NMV, nirmatrelvir]",significantly decreased,significantly decreased,"also involved in the 7 metabolic pathways of NMV, especially for the production of M4 and M5",did not contribute to NMV metabolism,did not contribute to NMV metabolism,did not contribute to NMV metabolism,did not contribute to NMV metabolism,did not contribute to NMV metabolism,contributed the most to all the 7 metabolic pathways of NMV,~50,~50,~50,increased the systemic exposure of NMV,7,did not contribute to NMV metabolism,did not contribute to NMV metabolism,,,
"CC[C@H]1CN2CC[C@]3(C(=O)Nc4ccccc43)[C@@H]2C[C@@H]1/C(=C\OC)C(=O)OC [RCP, rhynchophylline]",,,,,,,,,,,,,,,,,but not in Pxr-null/CYP3A mice,increased the protein level of CYP3A,significantly upregulated
"CC(C)c1nc(CN(C)C(=O)N[C@H](C(=O)N[C@@H](Cc2ccccc2)C[C@H](O)[C@H](Cc2ccccc2)NC(=O)OCc2cncs2)C(C)C)cs1 [RTV, ritonavir]",also decreased,also decreased,,,,,,,,,,,,,,,,,
